Assay results: patent US12479856B2, “Pharmaceutical compounds for the treatment of complement mediated disorders” (Achillion Pharmaceuticals, Inc., priority 2019, dated 2025)

Biological target: T1, Human complement C1s enzyme (Homo sapiens, UniProt P09871)
T1 construct: purified from human serum, Complement Technology, Inc; purchased Complement Technology, Inc; host or cells: human serum (plasma-derived natural protein)
T1 sequence (P09871 438-688 limits assumed): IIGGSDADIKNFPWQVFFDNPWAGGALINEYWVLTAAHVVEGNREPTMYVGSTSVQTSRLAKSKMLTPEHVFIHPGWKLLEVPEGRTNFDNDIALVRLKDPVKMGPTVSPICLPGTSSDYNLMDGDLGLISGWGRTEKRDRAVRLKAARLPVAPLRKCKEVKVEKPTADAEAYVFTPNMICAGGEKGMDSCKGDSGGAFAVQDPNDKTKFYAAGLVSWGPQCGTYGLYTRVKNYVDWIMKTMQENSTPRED
T1 sequence (P09871 16-437 partner limits assumed): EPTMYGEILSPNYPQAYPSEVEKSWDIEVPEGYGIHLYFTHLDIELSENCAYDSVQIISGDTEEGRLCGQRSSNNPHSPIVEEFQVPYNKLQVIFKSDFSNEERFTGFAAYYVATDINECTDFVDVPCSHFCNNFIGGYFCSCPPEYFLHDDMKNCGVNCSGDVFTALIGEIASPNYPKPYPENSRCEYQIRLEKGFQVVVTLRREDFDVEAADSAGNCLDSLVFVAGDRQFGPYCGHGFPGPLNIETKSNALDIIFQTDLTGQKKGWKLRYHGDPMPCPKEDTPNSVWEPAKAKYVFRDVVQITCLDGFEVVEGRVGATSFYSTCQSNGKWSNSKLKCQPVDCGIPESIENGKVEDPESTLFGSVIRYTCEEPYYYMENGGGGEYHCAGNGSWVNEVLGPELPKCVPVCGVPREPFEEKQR
Assay: Human C1s Enzyme Assay
Type: biochemical
Settings: Table 1; C1s purified from human serum, 1.16 nM; substrate Z-L-Lys-SBzl; read-out: C1s Protease Activity
Outline: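 Serum-purified human C1s (1.16 nM) preincubated 5 min at RT with compound in 50 mM Tris, 1 M NaCl, pH 7.5. Z-L-Lys-SBzl and DTNB (100 μM each) then added; A405 followed every 30 s for 30 min. IC50 from nonlinear regression of reaction rates versus compound concentration.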

IC50	SMILES
< 100 nM	Cc1ccc(Oc2ccc(C(=O)NCC(=O)N3CC4(C[C@H]3C(=O)NCc3cc(C(=N)N)cs3)OCCO4)cc2)cc1 [Compound 1, (8S)—N-[(4-carbamimidoylthiophen-2-yl)methyl]-7-(2-{[4-(4-methylphenoxy)phenyl]formamido}acetyl)-1,4-dioxa-7-azaspiro[4.4]nonane-8-carboxamide]
> 1000 nM	N=C(N)c1csc(CNC(=O)[C@@H]2CC3(CCCCC3)CN2C(=O)CNC(=O)c2ccc(Oc3ccccc3)cc2)c1 [Compound 13, (3S)—N-[(4-Carbamimidoylthiophen-2-yl)methyl]-2-{2-[(4-phenoxyphenyl)formamido]acetyl}-2-azaspiro[4.5]decane-3-carboxamide]
< 100 nM	N=C(N)c1csc(CNC(=O)[C@@H]2CC(=O)CN2C(=O)CNC(=O)c2ccc(Oc3ccccc3)cc2)c1 [Compound 15, (2S)—N-[(4-Carbamimidoylthiophen-2-yl)methyl]-4-oxo-1-{2-[(4-phenoxyphenyl)formamido]acetyl}pyrrolidine-2-carboxamide]
< 100 nM	N=C(N)c1csc(CNC(=O)[C@@H]2C[C@@H](O)CN2C(=O)CNC(=O)c2ccc(Oc3ccccc3)cc2)c1 [Compound 31, (2S,4R)—N-[(4-carbamimidoylthiophen-2-yl)methyl]-4-hydroxy-1-{2-[(4-phenoxyphenyl)formamido]acetyl}pyrrolidine-2-carboxamide]

Same assay, conditions: Table 2; C1s purified from human serum, 1.16 nM; substrate Z-L-Lys-SBzl; read-out: C1s Protease Activity

SMILES	IC50
C=C(CCC(=O)N1CCC[C@H]1C(=O)NCc1cc(C(=N)N)cs1)c1ccc(Oc2ccccc2)cc1 [Compound 40, (S)-N-((4-carbamimidoylthiophen-2-yl)methyl)-1-(4-(4-phenoxyphenyl)pent-4-enoyl)pyrrolidine-2-carboxamide]	100 to 1000 nM
N=C(N)c1csc(CNC(=O)[C@@H]2CCCN2C(=O)CCC(=O)c2ccc(Oc3ccccc3)cc2)c1 [Compound 52, (S)-N-((4-carbamimidoylthiophen-2-yl)methyl)-1-(4-oxo-4-(4-phenoxyphenyl)butanoyl)pyrrolidine-2-carboxamide]	< 100 nM
N#C/N=C(\N)c1csc(CNC(=O)[C@@H]2CC3(CN2C(=O)CNC(=O)c2ccc(Oc4ccccc4)cc2)OCCO3)c1 [Compound 63, (S,Z)-N-((4-(N′-cyanocarbamimidoyl)thiophen-2-yl)methyl)-7-((4-phenoxybenzoyl)glycyl)-1,4-dioxa-7-azaspiro[4.4]nonane-8-carboxamide]	< 100 nM
N=C(N)c1csc(CNC(=O)[C@@H]2CCCN2C(=O)CCC2(c3ccc(Oc4ccccc4)cc3)CC2)c1 [Compound 44, (S)-N-((4-carbamimidoylthiophen-2-yl)methyl)-1-(3-(1-(4-phenoxyphenyl)cyclopropyl)propanoyl)pyrrolidine-2-carboxamide]	> 1000 nM
CCOc1ccc(C(=O)NCC(=O)N2CCC[C@H]2C(=O)NCc2cc(C(=N)N)cs2)cc1 [Compound 76, (S)-N-((4-carbamimidoylthiophen-2-yl)methyl)-1-((4-ethoxybenzoyl)glycyl)pyrrolidine-2-carboxamide]	100 to 1000 nM

Second part, the compound after the results:

IC50	SMILES
> 1000 nM	CN(C)CCCCCC(=O)NCC(=O)N1CCC[C@H]1C(=O)NCc1cc(C(=N)N)cs1 [Compound 71, (S)-N-((4-carbamimidoylthiophen-2-yl)methyl)-1-((6-(dimethylamino)hexanoyl)glycyl)pyrrolidine-2-carboxamide]
< 100 nM	CCCCCCCC(=O)NCC(=O)N1CCC[C@H]1C(=O)NCc1cc(C(=N)N)cs1 [Compound 84, (S)-N-((4-carbamimidoylthiophen-2-yl)methyl)-1-(octanoylglycyl)pyrrolidine-2-carboxamide]
< 100 nM	N=C(N)c1csc(CNC(=O)[C@@H]2CCCN2C(=O)CNC(=O)CCCCOc2ccccc2)c1 [Compound 68, (S)-N-((4-carbamimidoylthiophen-2-yl)methyl)-1-((5-phenoxypentanoyl)glycyl)pyrrolidine-2-carboxamide]
< 100 nM	N=C(N)c1csc(CNC(=O)[C@@H]2CCCN2C(=O)CNC(=O)CCCCc2ccccc2)c1 [Compound 80, (S)-N-((4-carbamimidoylthiophen-2-yl)methyl)-1-((5-phenylpentanoyl)glycyl)pyrrolidine-2-carboxamide]

Same assay, conditions: Table 3; C1s purified from human serum, 1.16 nM; substrate Z-L-Lys-SBzl; read-out: C1s Protease Activity

IC50	SMILES
> 1000 nM	N=C(N)c1csc(NC(=O)[C@@H]2CC3(CN2C(=O)CNC(=O)c2ccc(Oc4ccccc4)cc2)OCCO3)c1 [Compound 91, (S)-N-(4-carbamimidoylthiophen-2-yl)-7-((4-phenoxybenzoyl)glycyl)-1,4-dioxa-7-azaspiro[4.4]nonane-8-carboxamide]
